The results in this text go back to ChEMBL document CHEMBL4052678, “Urotensin core mimics that modulate the biological activity of urotensin-II related peptide but not urotensin-II” (Bioorg Med Chem Lett, 2017).

In general, Emax refers to the maximal effect, on the per cent scale that the assay sets. What is called EC50 is the concentration giving half of the maximal effect.

Activity calls are given as the source filed them. The rule behind the calls is not given here. Starred links: 1 amine or outer side, 2 acyl side, 3 side chain; linkers in the order of their positions; H or OH if unused. Non-standard residues stand in square brackets, D forms with d. Residues, ends and D or L forms follow the SMILES beside them. X1 = O=C(Cn1cc(CN[*:1])nn1)[*:2]

Holding throughout (assay type): functional
For assay [1], the system named is Aorta. The experiment in a line: Inhibition of urotensin II-related peptide-induced contraction in Sprague-Dawley rat aortic rings assessed as Emax for urotensin II-related peptide at 30 umol relative to KCl-induced contraction (reference value: 113 +/- 2%).
In assay [2] the test system is Aorta. The experiment in a line: Inhibition of human urotensin II-induced contraction in Sprague-Dawley rat aortic rings assessed as Emax for urotensin II relative to KCl-induced contraction (reference value: 8.59 +/- 0.08).
Assay [3] concerns Aorta. Description: Induction of contraction in Sprague-Dawley rat aortic rings at 30 umol relative to KCl-induced contraction.
Assay [4] relates to Aorta. Description: Inhibition of human urotensin II-induced contraction in Sprague-Dawley rat aortic rings assessed as Emax for urotensin II at 30 umol relative to KCl-induced contraction (reference value: 104 +/- 4%).
The test system of assay [5] is Aorta. Description: Inhibition of urotensin II-related peptide-induced contraction in Sprague-Dawley rat aortic rings assessed as Emax for urotensin II-related peptide relative to KCl-induced contraction (reference value: 8.07 +/- 0.03).
Assay [6] relates to Aorta. Description: Induction of contraction in Sprague-Dawley rat aortic rings at 25 umol relative to KCl-induced contraction.

Take `NCCCC[C@@H]1NC(=O)[C@H](Cc2c[nH]c3ccccc23)NC(=O)Cn2cc(nn2)CNC(=O)[C@H](Cc2ccc(O)cc2)NC1=O`: the results for the maximum response (Emax) in assay [1] and in assay [4] were 90% and 97%, respectively. The EC50 in assay [2] is 1.35 nM; in assay [5], 3.02 nM. In addition, in assay [3], the result was Active.
In the case of `NCCCC[C@@H]1NC(=O)[C@H](Cc2c[nH]c3ccccc23)NC(=O)[C@H](Cc2ccccc2)NC(=O)Cn2cc(nn2)CNC(=O)[C@H](Cc2ccc(O)cc2)NC1=O` (cyclo(FWKY[X1])), the Emax was found to be 54% in assay [1] and 96% in assay [4]. For the same compound, the figures for the EC50 in assay [2] and in assay [5] were 4.27 nM and 0.501 nM, respectively. Further, the outcome in assay [6] was Active.
